“Also recorded” adds a separate entry of the source. Where two headings read alike, the source gives them in different places. Blank lines part the entries; values can stand above or below the molecule they belong to. Positions of bridges follow the written chain, without caps; N, C: chain ends. Non-standard residues stand in square brackets, D forms with d. Residues, ends and D or L forms follow the SMILES beside them. Ser(allyl) = C=CCOC[C@H](N)C(=O)O
Assays:
Grb7-SH2 domain [1] = target: T1, Grb7-SH2 domain (Homo sapiens, UniProt Q14451); assay: SPR binding of G7 peptides to GST-Grb7-SH2 domain; conditions: for Kd: KD (equilibrium dissociation constant), steady-state equilibrium, single-site model, 50 mM sodium phosphate, 150 mM NaCl, 1 mM DTT, pH 7.4, 25 °C; for Bmax (maximum binding signal): fit to single-site saturation model
Grb7-SH2 domain [2] = target: T1, Grb7-SH2 domain; set-up: Grb7-SH2 (encoding residues 415–532); made in house; host or cells: E. coli BL21 (DE3) pLysS; conditions: previously determined by ITC; cited from earlier work
Grb2-SH2 domain = target: T2, Grb2-SH2 domain (Homo sapiens, UniProt P62993); assay: SPR binding of G7-B4 to GST-Grb2-SH2 domain
T2 construct: Grb2-SH2 (encoding residues 58–160); made in house; host or cells: E. coli BL21 (DE3) pLysS
Excerpt: (§1) Previous studies have established the preferential binding of the G7-18NATE peptide to Grb7-SH2 over closely related SH2 domains (Grb10- and Grb14-SH2 domains that share 67% and 65% identity respectively, to the Grb7-SH2 and Grb2-SH2 (~26% identity) domain that shares the pYXN peptide recognition motif)[26]. In order to determine whether the bicyclic peptide G7-B4 retains its specificity for the Grb7-SH2 domain we measured the binding of G7-B4 to Grb2-, Grb10- and Grb14-SH2 domains using SPR. […] Therefore the binding of G7-B4 to Grb2-, Grb10- and Grb14-SH2 is over 130 times weaker than binding to Grb7-SH2 domain, showing that G7-B4 is highly specific for the Grb7-SH2 domain.
(§2) The pGEX2T plasmids with inserts containing Grb7-SH2 (encoding residues 415–532), Grb2-SH2 (encoding residues 58–160), Grb10-SH2 (encoding residues 471–594) and Grb14-SH2 (encoding residues 426–540) were kindly provided by Dr. Roger Daly. Glutathion-S-Transferase (GST)-Grb2-SH2, GST-Grb7-SH2, Grb-10-SH2 and GST-Grb14-SH2 were all expressed and purified as previously described. […] The free Grb7-SH2 used in crystallography was expressed as a GST-fusion protein and was purified by GST affinity, followed by thrombin cleavage to liberate free Grb7-SH2, and then purified by cation exchange chromatography, and size exclusion chromatography as previously described. […]

Grb10-SH2 domain = target: T3, Grb10-SH2 domain (Homo sapiens, UniProt Q13322); assay: SPR binding of G7-B4 to Grb10-SH2 domain
T3 construct: Grb10-SH2 (encoding residues 471–594); made in house; host or cells: E. coli BL21 (DE3) pLysS
T3 sequence (Q13322 471-594): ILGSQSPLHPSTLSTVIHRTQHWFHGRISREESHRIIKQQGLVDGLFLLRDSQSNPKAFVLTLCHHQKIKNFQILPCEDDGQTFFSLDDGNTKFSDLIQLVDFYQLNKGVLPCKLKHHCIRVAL
Excerpt: as §1, §2

Grb14-SH2 domain = target: T4, Grb14-SH2 domain (Homo sapiens, UniProt Q14449); assay: SPR binding of G7-B4 to GST-Grb14-SH2 domain
T4 construct: Grb14-SH2 (encoding residues 426–540); made in house; host or cells: E. coli BL21 (DE3) pLysS
T4 sequence (Q14449 426-540): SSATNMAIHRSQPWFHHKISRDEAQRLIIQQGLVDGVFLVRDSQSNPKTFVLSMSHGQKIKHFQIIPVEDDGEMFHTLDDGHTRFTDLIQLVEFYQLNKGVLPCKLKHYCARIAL
Excerpt: as §1, §2

GST-Grb7-SH2 [3] = target: T5, GST-Grb7-SH2 (UniProt Q14451 415-532); assay: SPR; BIAcore T100; GST-SH2 proteins captured on anti-GST antibody on a CM5 chip, GST on the control cells; peptides 0-100 uM injected 60 s at 30 uL/min; 50 mM sodium phosphate, 150 mM NaCl, 1 mM DTT, pH 7.4; 25 C; KD from steady-state curves, single-site model; conditions: both partners purified
T5 construct: pGEX2T insert; GST fusion used in SPR, captured by an anti-GST antibody; also called Grb7-SH2 domain

GST-Grb7-SH2 [4] = target: T5, GST-Grb7-SH2; assay: as above; conditions: both partners purified; remark: listed apart in the source
[5] = SPR, no curvature up to 100 μM, saturation well below 50%

T1 sequence (Q14451 415-532): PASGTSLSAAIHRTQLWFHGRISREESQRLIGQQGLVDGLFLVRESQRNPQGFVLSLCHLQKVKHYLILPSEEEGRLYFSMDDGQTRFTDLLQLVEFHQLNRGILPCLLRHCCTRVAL
T5 sequence (Q14451 415-532): as above
T2 sequence (P62993 58-160): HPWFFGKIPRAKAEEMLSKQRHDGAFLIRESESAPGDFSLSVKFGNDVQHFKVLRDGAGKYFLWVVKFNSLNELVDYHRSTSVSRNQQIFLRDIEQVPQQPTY

- Kd (Grb7-SH2 domain [1]; SPR): 4.9 ± 0.03 µM
- Bmax (maximum binding signal) (Grb7-SH2 domain [1]; SPR): 53.47 ± 0.02 RU
- times weaker affinity compared to G7-B1 (Grb7-SH2 domain [1]; ratio of SPR KD values): approximately 3 times
Molecule: NC(=O)C[C@@H]1NC(=O)[C@H](CC(=O)O)NC(=O)[C@H](Cc2ccc(O)cc2)NC(=O)CNC(=O)[C@H](CCC(=O)O)NC(=O)[C@H](Cc2ccccc2)NC(=O)[C@@H]2COCC=CCOC[C@H](NC1=O)C(=O)N1CCC[C@H]1C(=O)N[C@H](C(N)=O)CSCC(=O)N2 [Peptide G7-B3] ({CH2CO}-[Ser(allyl)]FEGYDN[Ser(allyl)]PC-NH2; staple 1-8; thioether N-10)

Molecule: NC(=O)C[C@@H]1NC(=O)[C@H](CC(=O)O)NC(=O)[C@H](Cc2ccc(O)cc2)NC(=O)CNC(=O)[C@H](CCC(=O)O)NC(=O)[C@H](Cc2ccccc2)NC(=O)[C@@H]2COCC=CCOC[C@H](NC1=O)C(=O)N[C@@H](Cc1ccccc1)C(=O)N1CCC[C@H]1C(=O)N[C@H](C(N)=O)CSCC(=O)N2 [Peptide G7-B1] ({CH2CO}-[Ser(allyl)]FEGYDN[Ser(allyl)]FPC-NH2; staple 1-8; thioether N-11)
- Kd (Grb7-SH2 domain [2]): 1.9 µM

- Kd (Grb2-SH2 domain; [5]): > 100 µM
- times weaker binding than to Grb7-SH2 domain (Grb2-SH2 domain; selectivity Grb7-SH2 over Grb2-SH2): over 130 times
- Kd (Grb10-SH2 domain; [5]): > 100 µM
- times weaker binding than to Grb7-SH2 domain (Grb10-SH2 domain; selectivity Grb7-SH2 over Grb10-SH2): over 130 times
- Kd (Grb14-SH2 domain; [5]): > 100 µM
- times weaker binding than to Grb7-SH2 domain (Grb14-SH2 domain; selectivity Grb7-SH2 over Grb14-SH2): over 130 times
Molecule: NC(=O)C[C@@H]1NC(=O)[C@H](CC(=O)O)NC(=O)[C@H](Cc2ccc(O)cc2)NC(=O)CNC(=O)[C@H](CCC(=O)O)NC(=O)[C@H](Cc2ccccc2)NC(=O)[C@@H]2COCC=CCOC[C@H](NC1=O)C(=O)N[C@H](C(N)=O)CSCC(=O)N2 [Peptide G7-B4] ({CH2CO}-[Ser(allyl)]FEGYDN[Ser(allyl)]C-NH2; staple 1-8; thioether N-9)

Molecule: CH3-CO-NH2-(XFEGYDNX)-CONH2 where X = O-allylserine (Ac-[Ser(allyl)]FEGYDN[Ser(allyl)]-NH2; staple 1-8; SMILES CC(=O)N[C@H]1COCC=CCOC[C@@H](C(N)=O)NC(=O)[C@H](CC(N)=O)NC(=O)[C@H](CC(=O)O)NC(=O)[C@H](Cc2ccc(O)cc2)NC(=O)CNC(=O)[C@H](CCC(=O)O)NC(=O)[C@H](Cc2ccccc2)NC1=O) [Peptide G7-B1NT]
- binding to Grb7-SH2 domain (in words) (Grb7-SH2 domain [1]; SPR, peptide up to 100 μM): very weak binding; also recorded: dramatically reduced affinity

- Kd (Grb7-SH2 domain [1]; SPR): 4.9 µM
- Bmax (maximum binding signal) (Grb7-SH2 domain [1]; SPR): 34.78 ± 0.01 RU
- fold loss in binding affinity compared to G7-B4 (Grb7-SH2 domain [1]; ratio of SPR KD values): 6 fold
Molecule: C=CCOC[C@@H]1NC(=O)CSC[C@@H](C(N)=O)NC(=O)[C@H](COCC=C)NC(=O)[C@H](CC(N)=O)NC(=O)[C@H](CC(=O)O)NC(=O)[C@H](Cc2ccc(O)cc2)NC(=O)CNC(=O)[C@H](CCC(=O)O)NC(=O)[C@H](Cc2ccccc2)NC1=O [Peptide G7-B4NS] ({CH2CO}-[Ser(allyl)]FEGYDN[Ser(allyl)]C-NH2; thioether N-9)

- koff (GST-Grb7-SH2 [3]): ~0.21 s⁻¹
- Kd (GST-Grb7-SH2 [4]): 1.5 µM
B1: G7-B1 (cyclo-(CH2CO-(XFEGYDNXFPC)-CONH2 where X = O-allylserine) (peptide)
chain: {CH2CO}-[Ser(allyl)]FEGYDN[Ser(allyl)]FPC-NH2
modifications: staple 1-8; thioether N-11
SMILES: NC(=O)C[C@@H]1NC(=O)[C@H](CC(=O)O)NC(=O)[C@H](Cc2ccc(O)cc2)NC(=O)CNC(=O)[C@H](CCC(=O)O)NC(=O)[C@H](Cc2ccccc2)NC(=O)[C@@H]2COCC=CCOC[C@H](NC1=O)C(=O)N[C@@H](Cc1ccccc1)C(=O)N1CCC[C@H]1C(=O)N[C@H](C(N)=O)CSCC(=O)N2

- Kd (GST-Grb7-SH2 [4]): 4.93 µM
B2: G7-B4NS (cyclo-(CH2CO-(XFEGYDNXC)-CONH2 where X = O-allylserine), without ring closing metathesis (peptide)
chain: {CH2CO}-[Ser(allyl)]FEGYDN[Ser(allyl)]C-NH2
modifications: thioether N-9
SMILES: C=CCOC[C@@H]1NC(=O)CSC[C@@H](C(N)=O)NC(=O)[C@H](COCC=C)NC(=O)[C@H](CC(N)=O)NC(=O)[C@H](CC(=O)O)NC(=O)[C@H](Cc2ccc(O)cc2)NC(=O)CNC(=O)[C@H](CCC(=O)O)NC(=O)[C@H](Cc2ccccc2)NC1=O

- koff (GST-Grb7-SH2 [3]): ~0.25 s⁻¹
- Kd (GST-Grb7-SH2 [4]): 0.83 µM
B3: G7-B4 (cyclo-(CH2CO-(XFEGYDNXC)-CONH2 where X = O-allylserine) (peptide)
chain: {CH2CO}-[Ser(allyl)]FEGYDN[Ser(allyl)]C-NH2
modifications: staple 1-8; thioether N-9
